# Measured values published in PubChem BioAssay AID2060894 (Molecular Pharmacology Branch, DTP, NCI, 2025).
# System: K12877-001-R-J1-PDC complex spheroid viability
# Experiment: Anticancer human tumor K12877-001-R-J1-PDC patient-derived lung adenocarcinoma cell line growth inhibition [RAS]
# Conditions: for IC50: curve of first compound; for viability, T/C: stronger effect = lower value
# From the text: RAS pathway inhibitors in Combinations in Complex Spheroids
# A high-throughput screen of multi-cell type tumor spheroids was designed to identify active combinations of RAS pathway inhibitors and targeted small molecules. Complex spheroids include a stromal component modeled by human endothelial cells (HUVEC) and fibroblasts modeled by human mesenchymal stem cells (MSCs). The concentration ranges selected for each drug and investigational agent were based upon clinically achievable concentrations if the clinical Cmax of the agent was known.
# Compounds. The drugs and investigational agents: abemaciclib (NSC768073), cobimetinib (NSC768068), divarasib (GDC6063, NSC841802), docetaxel (NSC628503), GDC-1971 (RLY-1971, NSC841576), gemcitabine (NSC613327), inavolisib (NSC800729), ipatasertib (NSC767898), KB-0742 (NSC834161), MRTX-1133 (NSC836407), osimertinib (NSC779217), RMC-4630 (NSC839698), RMC-6236 (NSC851965), RMC-6291 (NSC852671), Ro-3306 (NSC812927), sapanisertib (NSC764658), SN-38 (NSC673596), staurosporine (NSC755774), SY5609 (NSC837396), and tovorafenib (DAY101, NSC766906), were obtained from the National Cancer Institute (NCI) Developmental Therapeutics Program Chemical Repository. The FDA-approved anticancer drug set is available from the NCI Developmental Therapeutics Program. […] The stock solutions were prepared in dimethyl sulfoxide (DMSO, Sigma-Aldrich, St. Louis, MO, cat. D2650) at 800-fold the tested concentration and stored at -70 degrees C prior to their use. All drugs and investigational agents were tested over a range starting from a high concentration at or near the clinical Cmax and decreasing in half-log increments. If the clinical Cmax for an agent had not been determined, the highest concentration tested was 10 microM.
# Cell Culture. All cells were maintained in an incubator at 37 degrees C and 5% CO2 with 95% humidity. The PDC lines were cultured according to standard operating procedures established by the NCI PDMR. All PDCs were thawed and cultured in Matrigel-coated flasks prepared with a working solution of 1X Ham's F-12 nutrient mix, without supplementation (Invitrogen, Waltham, MA, cat. 11765054), 100 U/mL penicillin-streptomycin (Invitrogen, cat. 15140122), and 2.5% Matrigel (Corning Inc., Corning, NY, cat. 354248) for the first three passages. The 362531-283-R-J2-PDC and 782815-120-R-J1-PDC lines were cultured in 6C/Colon 1B media, which includes advanced DMEM/F-12 (Thermo Fisher Scientific, cat. 12634028), 10 mM HEPES (Thermo Fisher Scientific, cat. 15630080), 1X GlutaMAX supplement (Thermo Fisher Scientific, cat. 35050061), 0.1 mg/mL primocin (InvivoGen, San Diego, CA, cat. ant-pm-2), 10% defined fetal bovine serum, heat inactivated (HyClone Laboratories Inc., Logan, UT, cat. SH30070.03HI), 50% L-WRN conditioned media (ATCC, cat. CRL-3276), 1.25 mM N-Acetyl-L-cysteine (Sigma-Aldrich, cat. A9165), 10 mM nicotinamide (Sigma-Aldrich, cat. N0636), 1X B-27 supplement (Thermo Fisher Scientific, cat. 17504044), 1X N-2 supplement (Thermo Fisher Scientific, cat. 17502048), 50 ng/mL human EGF (Thermo Fisher Scientific, cat. PHG0311), and 10 microM Y-27632 dihydrochloride (Tocris Bioscience, cat. 1254). The K12877-001-R-J1-PDC line was cultured in 6I media, which includes all 6C/Colon 1B media plus 10 ng/mL human FGF-10 (PeproTech, cat. 100-26), 1 ng/mL human FGF-2 (PeproTech, cat. 100-18B), 1 µM prostaglandin E2 (Tocris Bioscience, cat. 2296), […] hydrocortisone (Sigma-Aldrich, cat. H4001), and […] bovine insulin (Sigma-Aldrich, cat. I6634). The K86415-001-R-J1-PDC line was cultured in 6D media, which includes all 6C/Colon 1B media components minus the L-WRN conditioned media. The 485176-168-R4-J1-PDC was cultured in PANC media, which includes all 6C/Colon 1B media plus 100 ng/mL human FGF-10 (PeproTech, cat. 100-26), 500 nM SB-431542 (Selleckchem, cat. S1067), and 10 nM gastrin (Tocris Bioscience, cat. 3006). […]
# [1] = second compound 0.0316 µM, first compound 0.0316 µM
# [2] = second compound 0.0316 µM, first compound 0.1 µM
# [3] = second compound 0.1 µM, first compound 0.0316 µM
# [4] = second compound 0.1 µM, first compound 0.1 µM
# [5] = second compound 0.316 µM, first compound 0.0316 µM
# [6] = second compound 0.316 µM, first compound 0.1 µM
# [7] = second compound 1 µM, first compound 0.0316 µM
# [8] = second compound 1 µM, first compound 0.1 µM
# [9] = second compound 3.16 µM, first compound 0.0316 µM
# [10] = second compound 3.16 µM, first compound 0.1 µM
# [11] = second compound 10 µM, first compound 0.0316 µM
# [12] = second compound 10 µM, first compound 0.1 µM
# 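Note: spheroids exposed to agents for one week before readout.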
smiles,measurement,setting,value
CC(C)n1nc(-c2ccc3oc(N)nc3c2)c2c(N)ncnc21 + C#Cc1c(F)ccc2cc(O)cc(-c3ncc4c(N5CC6CCC(C5)N6)nc(OCC56CCCN5CC(F)C6)nc4c3F)c12,IC50,second compound 0.0316 µM,25.3 nM
same,IC50,second compound 0.1 µM,26.5 nM
same,IC50,second compound 0.316 µM,27 nM
same,IC50,second compound 1 µM,28 nM
same,IC50,second compound 3.16 µM,25.5 nM
same,IC50,second compound 10 µM,25.6 nM
same,"viability, T/C","second compound 0.0316 µM, first compound 0.000316 µM",105%
same,"viability, T/C","second compound 0.0316 µM, first compound 0.001 µM",88.2%
same,"viability, T/C","second compound 0.0316 µM, first compound 0.00316 µM",83%
same,"viability, T/C","second compound 0.0316 µM, first compound 0.01 µM",93.9%
same,"viability, T/C",[1],39.8%
same,"viability, T/C",[2],24.5%
same,"viability, T/C","second compound 0.1 µM, first compound 0.000316 µM",99.2%
same,"viability, T/C","second compound 0.1 µM, first compound 0.001 µM",86.2%
same,"viability, T/C","second compound 0.1 µM, first compound 0.00316 µM",82.4%
same,"viability, T/C","second compound 0.1 µM, first compound 0.01 µM",94.2%
same,"viability, T/C",[3],42.7%
same,"viability, T/C",[4],24%
same,"viability, T/C","second compound 0.316 µM, first compound 0.000316 µM",97%
same,"viability, T/C","second compound 0.316 µM, first compound 0.001 µM",102%
same,"viability, T/C","second compound 0.316 µM, first compound 0.00316 µM",88.1%
same,"viability, T/C","second compound 0.316 µM, first compound 0.01 µM",98.8%
same,"viability, T/C",[5],42.5%
same,"viability, T/C",[6],23.2%
same,"viability, T/C","second compound 1 µM, first compound 0.000316 µM",101%
same,"viability, T/C","second compound 1 µM, first compound 0.001 µM",104%
same,"viability, T/C","second compound 1 µM, first compound 0.00316 µM",91.7%
same,"viability, T/C","second compound 1 µM, first compound 0.01 µM",101%
same,"viability, T/C",[7],44.1%
same,"viability, T/C",[8],24%
same,"viability, T/C","second compound 3.16 µM, first compound 0.000316 µM",114%
same,"viability, T/C","second compound 3.16 µM, first compound 0.001 µM",93.3%
same,"viability, T/C","second compound 3.16 µM, first compound 0.00316 µM",91.7%
same,"viability, T/C","second compound 3.16 µM, first compound 0.01 µM",88.1%
same,"viability, T/C",[9],40.9%
same,"viability, T/C",[10],24.1%
same,"viability, T/C","second compound 10 µM, first compound 0.000316 µM",101%
same,"viability, T/C","second compound 10 µM, first compound 0.001 µM",84.5%
same,"viability, T/C","second compound 10 µM, first compound 0.00316 µM",82.7%
same,"viability, T/C","second compound 10 µM, first compound 0.01 µM",79.5%
same,"viability, T/C",[11],42.6%
same,"viability, T/C",[12],19.5%
C[C@@H](NC(=O)c1ncnc(N)c1Cl)c1ncc(C(=O)Nc2cc(C(F)(F)F)c(Cl)cn2)s1 + C#Cc1c(F)ccc2cc(O)cc(-c3ncc4c(N5CC6CCC(C5)N6)nc(OCC56CCCN5CC(F)C6)nc4c3F)c12,IC50,second compound 0.0316 µM,> 10000 nM
same,IC50,second compound 0.1 µM,> 10000 nM
same,IC50,second compound 0.316 µM,> 10000 nM
same,IC50,second compound 1 µM,> 10000 nM
same,IC50,second compound 3.16 µM,> 10000 nM
same,IC50,second compound 10 µM,> 10000 nM
same,"viability, T/C",[1],108%
same,"viability, T/C",[2],101%
same,"viability, T/C","second compound 0.0316 µM, first compound 0.316 µM",113%
same,"viability, T/C","second compound 0.0316 µM, first compound 1 µM",107%
same,"viability, T/C","second compound 0.0316 µM, first compound 3.16 µM",99%
same,"viability, T/C","second compound 0.0316 µM, first compound 10 µM",102%
same,"viability, T/C",[3],94.4%
same,"viability, T/C",[4],96.2%
same,"viability, T/C","second compound 0.1 µM, first compound 0.316 µM",93.5%
same,"viability, T/C","second compound 0.1 µM, first compound 1 µM",103%
same,"viability, T/C","second compound 0.1 µM, first compound 3.16 µM",92.5%
same,"viability, T/C","second compound 0.1 µM, first compound 10 µM",97.9%
same,"viability, T/C",[5],96.9%
same,"viability, T/C",[6],105%
same,"viability, T/C","second compound 0.316 µM, first compound 0.316 µM",97.4%
same,"viability, T/C","second compound 0.316 µM, first compound 1 µM",101%
same,"viability, T/C","second compound 0.316 µM, first compound 3.16 µM",108%
same,"viability, T/C","second compound 0.316 µM, first compound 10 µM",98.6%
same,"viability, T/C",[7],87.7%
same,"viability, T/C",[8],105%
same,"viability, T/C","second compound 1 µM, first compound 0.316 µM",102%
same,"viability, T/C","second compound 1 µM, first compound 1 µM",108%
same,"viability, T/C","second compound 1 µM, first compound 3.16 µM",106%
same,"viability, T/C","second compound 1 µM, first compound 10 µM",98.9%
same,"viability, T/C",[9],107%
same,"viability, T/C",[10],104%
same,"viability, T/C","second compound 3.16 µM, first compound 0.316 µM",104%
same,"viability, T/C","second compound 3.16 µM, first compound 1 µM",106%
same,"viability, T/C","second compound 3.16 µM, first compound 3.16 µM",111%
same,"viability, T/C","second compound 3.16 µM, first compound 10 µM",98.3%
same,"viability, T/C",[11],106%
same,"viability, T/C",[12],91.7%
same,"viability, T/C","second compound 10 µM, first compound 0.316 µM",107%
same,"viability, T/C","second compound 10 µM, first compound 1 µM",98%
same,"viability, T/C","second compound 10 µM, first compound 3.16 µM",107%
same,"viability, T/C","second compound 10 µM, first compound 10 µM",96.7%
